US20160100579A1, “NEMATICIDAL N-(2-SUBSTITUTED 2-PHENYLETHYL)CARBOXAMIDES AND N-(2-SUBSTITUTED 2-PHENYLETHYL)-THIOCARBOXAMIDES” (priority 2013, published 2016)
Like-named read-outs stand apart in the source and are kept apart here.

Tests used:
Cooperia curticei = assay type: in vivo; settings: after 5 days, 100% = all larvae killed
Protocol: Cooperia curticei—Test (COOPCU)
(§1) Solvent: dimethyl sulfoxide
(§2) To produce a suitable preparation of active compound, 10 mg of active compound are dissolved in 0.5 ml solvent, and the concentrate is diluted with “Ringer's solution” to the desired concentration.
Approximately 40 nematode larvae (Cooperia curticei) are transferred into a test tube containing the compound solution.
After 5 days percentage of larval mortality is recorded. 100% efficacy means all larvae are killed; 0% efficacy means no larvae are killed.

[1] = Measurement of log P values by HPLC on reversed phase columns (EEC directive 79/831 Annex V.A8; methods [a] pH 2.3, [b] pH 2.7, [c] pH 7.8); assay type: physicochemical; settings: for chromatographic logP: reversed phase HPLC column
Protocol: Measurement of log P-values:
Measurement of log P values was performed according EEC directive 79/831 Annex V.A8 by HPLC (High Performance Liquid Chromatography) on reversed phase columns with the following methods:
^[a] Measurement was done at pH 2.3 with 0.1% phosphoric acid and acetonitrile as eluent with a linear gradient from 10% acetonitrile to 95% acetonitrile.
^[b] measurement of LC-MS was done at pH 2.7 with 0.1% formic acid in water and with acetonitrile (contains 0.1% formic acid) as eluent with a linear gradient from 10% acetonitrile to 95% acetonitrile.
^[c] Measurement with LC-MS was done at pH 7.8 with 0.001 molar ammonium hydrogen carbonate solution in water as eluent with a linear gradient from 10% acetonitrile to 95% acetonitrile.
Calibration was done with not branched alkan2-ones (with 3 to 16 carbon atoms) with known log P-values (measurement of log P values using retention times with linear interpolation between successive alkanones).. lambda-maX-values were determined using UV-spectra from 200 nm to 400 nm and the peak values of the chromatographic signals.

Meloidogyne incognita = Meloidogyne incognita - test (MELGIN); assay type: in vivo; settings: 20 ppm; salad seedlings in sand; after 14 days; 100% = no galls found
Protocol: Meloidogyne incognita—test (MELGIN)
Solvent: 125.0 parts by weight of acetone
To produce a suitable preparation of active compound, 1 part by weight of active compound is mixed with the stated amount of solvent, and the concentrate is diluted with water to the desired concentration.
Vessels are filled with sand, a solution of the active ingredient, a suspension containing eggs and larvae of the southern root-knot nematode (Meloidogyne incognita) and salad seeds. The salad seeds germinate and the seedlings grow. Galls develop in the roots.
After 14 days the nematicidal activity is determined on the basis of the percentage of gall formation. 100% means that no galls were found; 0% means the number of galls found on the roots of the treated plants was equal to that in untreated control plants.

Haemonchus contortus = Haemonchus contortus - Test (HAEMCO); assay type: in vivo; settings: after 5 days, 100% = all larvae killed
Protocol: Haemonchus contortus—Test (HAEMCO)
as §1, §2
Approximately 40 larvae of the red stomach worm (Haemonchus contortus) are transferred into a test tube containing compound solution.
After 5 days percentage of larval mortality is recorded. 100% efficacy means all larvae are killed, 0% efficacy means no larvae are killed.

Boophilus microplus = Boophilus microplus - Injectiontest (BOOPMI Inj); assay type: in vivo; settings: 20 μg/animal injected into adult engorged female ticks; after 7 days; 100% = all eggs infertile
Protocol: Boophilus microplus—Injectiontest (BOOPMI Inj)
as §1
To produce a suitable preparation of active compound, 10 mg of active compound are dissolved in 0.5 ml solvent, and the concentrate is diluted with solvent to the desired concentration.
Five adult engorged female ticks (Boophilus microplus) are injected with 1 μl compound solution into the abdomen. Ticks are transferred into replica plates and incubated in a climate chamber.
After 7 days the egg deposition of fertile eggs is monitored. Eggs where fertility is not visible are stored in a climate chamber till hatching after about 42 days. An efficacy of 100% means all eggs are infertile; 0% means all eggs are fertile.

[2] = method [b]: LC-MS at pH 2.7, 0.1% formic acid in water / acetonitrile
[3] = method [c]: LC-MS at pH 7.8, 0.001 molar ammonium hydrogen carbonate in water / acetonitrile
[4] = method [b]: LC-MS, pH 2.7, 0.1% formic acid in water / acetonitrile
[5] = method [c]: LC-MS, pH 7.8, 0.001 molar ammonium hydrogen carbonate / acetonitrile
[6] = method [a]: HPLC, pH 2.3, 0.1% phosphoric acid / acetonitrile

SMILES	activity (efficacy: larval mortality) (Cooperia curticei; 20 ppm) [%]	log P [1, 2]	log P [1, 3]	nematicidal activity (percentage of gall formation) (Meloidogyne incognita) [%]	logP [1, 4]	also measured
COC(c1ccccc1Cl)C(C)NC(=O)c1cccnc1C(F)(F)F (stereo not drawn) [Compound 209]	90	3.27^[b]	3.24^[c];			
CCOC(c1ccc(Cl)cc1Cl)C(C)NC(=O)c1ccccc1[N+](=O)[O-] (stereo not drawn) [Compound 202]	100	3.83^[b]	3.80^[c];	90		activity (efficacy: larval mortality) (Haemonchus contortus; 20 ppm): 80%
CCOC(c1ccc(Cl)cc1Cl)C(C)NC(=O)c1nccnc1C(F)(F)F (stereo not drawn) [Compound 107]	100			100	4.16^[b]	
COC(c1ccc(Cl)cc1)C(C)NC(=O)c1ccccc1C(F)(F)F (stereo not drawn) [Compound 128]	80	3.45^[b]	3.35^[c];			activity (efficacy: larval mortality) (Haemonchus contortus; 20 ppm): 90%
COC(CNC(=O)c1sccc1Cl)c1ccc(Cl)cc1 (stereo not drawn) [Compound 69]					3.41^[b]	activity (efficacy: larval mortality) (Cooperia curticei; 100 ppm): 90%; logP [1, 5]: 3.39^[c];; activity (efficacy: larval mortality) (Haemonchus contortus; 100 ppm): 90%
COC(c1ccc(Cl)cc1Cl)C(C)NC(=O)c1cn(C)nc1C(F)F (stereo not drawn) [Compound 12]				100		activity (efficacy: larval mortality) (Haemonchus contortus; 100 ppm): 90%
C=CCOC(CNC(=O)c1sccc1C)c1ccc(Cl)cc1 (stereo not drawn) [Compound 2]	100					activity (efficacy: larval mortality) (Haemonchus contortus; 20 ppm): 90%
COC(c1ccccc1Cl)C(C)NC(=O)c1ccccc1Br (stereo not drawn) [Compound 142]		3.34^[b]	3.31^[c];	90		
COC(CNC(=O)c1cccnc1C(F)(F)F)c1ccc(Cl)cc1Cl (stereo not drawn) [Compound 104]				90	3.11^[b]	
COC(c1ccc(Cl)cc1)C(C)NC(=O)c1sccc1Br (stereo not drawn) [Compound 65]					3.89^[b]	activity (efficacy: larval mortality) (Cooperia curticei; 100 ppm): 80%; logP [1, 5]: 3.83^[c];; activity (efficacy: larval mortality) (Haemonchus contortus; 100 ppm): 100%
COC(c1ccccc1Cl)C(C)NC(=O)c1ccccc1C(F)F (stereo not drawn) [Compound 140]		3.42^[b]	3.39^[c];	90		
CCOC(c1ccc(Cl)cc1Cl)C(C)NC(=O)c1ccsc1I (stereo not drawn) [Compound 205]	100	4.63^[b]	4.60^[c];			activity (efficacy: larval mortality) (Haemonchus contortus; 20 ppm): 90%
COC(c1ccc(Cl)cc1Cl)C1(NC(=O)c2nccnc2C(F)(F)F)CC1 (stereo not drawn) [Compound 99]	100				3.61^[b]	
COC(c1ccc(Cl)cc1Cl)C(C)NC(=O)c1ccccc1Cl (stereo not drawn) [Compound 30]				100		activity (efficacy: larval mortality) (Haemonchus contortus; 100 ppm): 100%
COC(c1ccccc1Cl)C(C)NC(=O)c1ccsc1I (stereo not drawn) [Compound 203]	80	3.53^[b]	3.53^[c];			activity (efficacy: larval mortality) (Haemonchus contortus; 20 ppm): 80%
C=CCOC(CNC(=O)c1cccnc1Cl)c1ccc(Cl)cc1 (stereo not drawn) [Compound 8]	80					
COC(c1ccccc1Cl)C(C)NC(=O)c1nccnc1C(F)(F)F (stereo not drawn) [Compound 208]	80	3.11^[b]	3.10^[c];	90		

SMILES	activity (efficacy: larval mortality) (Cooperia curticei; 20 ppm) [%]	log P [1, 2]	log P [1, 3]	nematicidal activity (percentage of gall formation) (Meloidogyne incognita) [%]	logP [1, 4]	also measured
Cc1ccsc1C(=O)NCC(OCC1CC1)c1ccc(Cl)cc1 (stereo not drawn) [Compound 6]						activity (efficacy: larval mortality) (Cooperia curticei; 100 ppm): 90%; logP [1, 6]: 3.87^[a]
COC(c1ccc(Cl)cc1Cl)C1(NC(=O)c2cccnc2C(F)(F)F)CC1 (stereo not drawn) [Compound 100]				90	3.37^[b]	
COC(c1ccc(Cl)cc1Cl)C(C)NC(=O)c1nccnc1C(F)(F)F (stereo not drawn) [Compound 73]	90			100		activity (efficacy: larval mortality) (Haemonchus contortus; 20 ppm): 100%
COC(c1ccccc1Cl)C(C)NC(=O)c1c(F)cccc1F (stereo not drawn) [Compound 144]		3.11^[b]	3.08^[c];	90		
CCOC(c1ccc(Cl)cc1Cl)C(C)NC(=O)c1cccnc1C(F)F (stereo not drawn) [Compound 105]				90	3.57^[b]	
CCOC(c1ccc(Cl)cc1Cl)C(C)NC(=O)c1cccnc1Cl (stereo not drawn) [Compound 106]				90	3.59^[b]	
COC(c1ccc(Cl)cc1)C(C)NC(=O)c1ccoc1I (stereo not drawn) [Compound 64]	80				3.28^[b]	activity (efficacy: larval mortality) (Haemonchus contortus; 20 ppm): 100%
COC(c1ccc(Cl)cc1Cl)C(C)NC(=O)c1ccccc1C(F)(F)F (stereo not drawn) [Compound 35]				90		logP [1, 6]: 3.90^[a]; activity (efficacy: larval mortality) (Haemonchus contortus; 100 ppm): 100%
COC(c1ccc(Cl)cc1Cl)C(C)NC(=O)c1cccnc1C(F)(F)F (stereo not drawn) [Compound 39]				90		activity (efficacy: larval mortality) (Haemonchus contortus; 100 ppm): 100%
COC(c1ccc(Cl)cc1Cl)C1(NC(=O)c2nccnc2Cl)CC1 (stereo not drawn) [Compound 210, 3-chloro-N-{1-[(2,4-dichlorophenyl)(methoxy)methyl]cyclopropyl}pyrazine-2-carboxamide]				100		chromatographic logP ([1]; acid HPLC method, reversed phase, read-out: Log P acid): 3.24; chromatographic logP ([1]; method [b]: LC-MS at pH 2.7, 0.1% formic acid in water / acetonitrile, read-out: log P): 3.24; chromatographic logP ([1]; method [c]: LC-MS at pH 7.8, 0.001 molar ammonium hydrogen carbonate in water / acetonitrile, read-out: log P): 3.19
CCOC(c1ccc(Cl)cc1Cl)C(C)NC(=O)c1cccnc1C(F)(F)F (stereo not drawn) [Compound 108]				100	3.92^[b]	
COC(c1ccc(Cl)cc1)C(C)NC(=O)c1ccccc1Cl (stereo not drawn) [Compound 130]	80		3.21^[c]			activity (efficacy: larval mortality) (Haemonchus contortus; 20 ppm): 80%
COC(c1ccccc1Cl)C(C)NC(=O)c1ccccc1Cl (stereo not drawn) [Compound 156]		3.74^[b]	3.26^[c];	90		
COC(c1ccccc1Cl)C(C)NC(=O)c1nccnc1Cl (stereo not drawn) [Compound 213]		2.76^[b]	2.73^[c];	100		
COC(c1ccccc1Cl)C(C)NC(=O)c1c(F)cccc1C(F)(F)F (stereo not drawn) [Compound 141]		3.52^[b]	3.50^[c];	90		
CCC(NC(=O)c1nccnc1C(F)(F)F)C(OC)c1ccc(Cl)cc1Cl (stereo not drawn) [Compound 92]	90			90	3.99^[b]	
COC(CNC(=O)c1nccnc1C(F)(F)F)c1ccc(Cl)cc1Cl (stereo not drawn) [Compound 103]	90			90	3.35^[b]	activity (efficacy: egg deposition of fertile eggs) (Boophilus microplus): 80%
